Results as given in US20240024298A1, “COMPOSITIONS AND METHODS FOR THE TREATMENT OF HPV-ASSOCIATED DISEASE STATES” (Children's Hospital Medical Center, priority 2022, published 2024).

Tests used:
Type in all cases: cell-based
[1] = system: HPV− keratinocytes grown into organotypic epithelial rafts; assay: EdU proliferation in HPV− organotypic epithelial rafts
Experimental: (§1) On raft day 14, the tissues were harvested and lysed with RIPA buffer to extract protein for western blotting. […] Beta-actin was used to show equal protein loading. (B) HPV− and HPV+ rafts were treated with increasing doses of OSMI-1, an inhibitor of OGT activity, from day 8 to day 14 of the raft culturing protocol. EdU, a thymidine analog that incorporates into DNA during DNA synthesis, was added to the media on day 13. 24 h later, on raft day 14, tissues were fixed in PFA for paraffin-embedding, sectioning, and immunofluorescence (IF) staining. Representative IF images are shown with nuclei stained with DAPI (blue), and proliferating cells visualized with click chemistry to detect EdU incorporation (pink). Quantification of the number of EdU+ cells per field is shown to the right. […] 2-way ANOVA was used to determine significance. Representative images shown. n=3.
(§2) Representative IF images are shown with nuclei stained with DAPI (blue), proliferating cells visualized with click chemistry to detect EdU incorporation (white), basal cell layer keratinocytes stained with collagen 17A (COL17A; green) and differentiated layer keratinocytes stained with keratin 10 (K10; red). Quantifications of the total (top graph) and suprabasal (lower graph) number of EdU+ cells per field are shown to the right. […] 2-way ANOVA was used to determine significance. Representative images shown. n=3.

[2] = system: HPV+ keratinocytes 3D spheroids; assay: 3D spheroid area, brightfield microscopy; settings: HPV+ spheres, culture day 4, n=4
Experimental: FIG. 3 (A) HPV+ and HPV− keratinocytes were seeded in round-bottom plates to form 3D spheroids (Day 0). 48 h after plating the cells (Day 2), increasing doses of Eliglustat were added to the media. 48 h after adding the drug treatment (Day 4), spheroids were imaged with brightfield microscopy and images quantified for sphere area. n=4. (B) Quantification of sphere area on culture day 4 after treatment with increasing doses of Eliglustat for 48 h.

[3] = system: HPV+ keratinocytes grown into organotypic epithelial rafts; assay: EdU proliferation in HPV+ organotypic epithelial rafts
Experimental: as §1, §2

[4] = increasing doses of Eliglustat, raft day 8 to day 14, EdU added day 13, n=3
[5] = 6.25 uM OSMI-1, treated raft day 8 to day 14, EdU added day 13, n=3
[6] = 25 uM OSMI-1 (highest dose tested), raft day 8 to day 14

Compound | Proliferation (total and suprabasal number of EdU+ cells per field) [1, 4] | Sphere area ([2]; 25 uM Eliglustat (highest dose tested), 48 h) | Sphere area ([2]; increasing doses of Eliglustat for 48 h) | Proliferation (total and suprabasal number of EdU+ cells per field) [3, 4] | Proliferation (number of EdU+ cells per field) [1, 5] | Proliferation (number of EdU+ cells per field) [1, 6] | Proliferation (number of EdU+ cells per field) [3, 5] | Proliferation (number of EdU+ cells per field) [3, 6]
CCCCCCCC(=O)N[C@H](CN1CCCC1)[C@H](O)c1ccc2c(c1)OCCO2 [Eliglustat] | no significant effect on proliferation | significantly reduce HPV+ sphere area to that of HPV− spheres | decreased concomitantly with increasing Eliglustat dose | significantly decreased with increasing dose |  |  |  | 
COc1ccccc1[C@@H](NS(=O)(=O)c1ccc2[nH]c(=O)ccc2c1)C(=O)N(Cc1ccco1)Cc1cccs1 [OSMI-1] |  |  |  |  | no effect on proliferation | decreased proliferation | significantly decreased | decreased proliferation
